Here are results for six molecules from ChEMBL document CHEMBL1201862, “PubChem BioAssay data set” (2004).

“And” between values parts separate entries of the source, which are not always exact repeats. Equal entries are not always repeated.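 Each compound was tested at five concentrations against cells in 96-well plates for 48 hours. Abbreviation: GI50, concentration required for 50% inhibition of growth.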 The source made the active and inactive calls. Rule as the data show it: active = GI50 up to about 1.1 µM and inactive = higher.

Among the test systems are A549; ACHN; HCT-15; HL-60; HOP-62; MOLT-4; NCI-H226; NCI-H460; NCI/ADR-RES; OVCAR-3; PC-3; RXF 393; SF-268; SF-539; SK-MEL-28; SN12C; SNB-19; SNB-75; T47D; UO-31.
Holding throughout (test): NCI-60 cell line screen, 48 h

As to `CCC(CC)C(=O)OC[n+]1cccc(-c2c(COC(=O)NC(C)C)c(COC(=O)NC(C)C)c3n2CCC3)c1`, the GI50 in the assay on A549 is > 100 µM (inactive); in the assay with ACHN, 40.8 µM (inactive); in the assay with HCT-15, above 100 µM; in the assay on HL-60, 33.1 µM (inactive); with HOP-62, 43.4 µM (inactive); in the assay with MOLT-4 it was 33.3 µM (inactive). Besides, the GI50 with NCI-H226 was > 100 µM (inactive); in the assay on NCI-H460 it was 45.8 µM (inactive); with NCI/ADR-RES it was 63.2 µM (inactive); with OVCAR-3, > 100 µM (inactive); with PC-3, > 100 µM (inactive); in the assay on RXF 393, 61.4 µM (inactive). In addition, the GI50 in the assay on SF-268 is 62.8 µM (inactive); in the assay with SF-539, 68.7 µM (inactive); with SK-MEL-28, > 100 µM (inactive); with SN12C, 58.2 µM (inactive); in the assay with SNB-19 it was > 100 µM (inactive); with SNB-75 it was > 100 µM (inactive). Besides, the GI50 in the assay with T47D and in the assay with UO-31 was > 100 µM (inactive) throughout.
With `Cc1c2c(c(C)n1-c1ccccc1)C(=O)N(CCSC(=N)N)C2=O`, the GI50 was > 100 µM (inactive) in the assay with A549; 32.6 µM (inactive) in the assay with ACHN; above 100 µM with HCT-15; > 100 µM (inactive) in the assay on HL-60; 83.6 µM (inactive) in the assay on HOP-62; 14.2 µM (inactive) in the assay on MOLT-4. Moreover, the GI50 was > 100 µM (inactive) with NCI-H226; 12.3 µM (inactive) in the assay on NCI-H460; 59.6 µM (inactive) in the assay with NCI/ADR-RES; > 100 µM (inactive) in the assay with OVCAR-3; > 100 µM (inactive) in the assay on PC-3; 40.2 µM (inactive) in the assay on RXF 393. For the same molecule, the GI50 in the assay on SF-268 is > 100 µM (inactive); in the assay with SF-539, > 100 µM (inactive); in the assay on SK-MEL-28, > 100 µM (inactive); in the assay with SN12C it was > 100 µM (inactive); in the assay on SNB-19, > 100 µM (inactive); with SNB-75, 15.6 µM (inactive). Further, the GI50 was 1.9 µM (inactive) in the assay with T47D and > 100 µM (inactive) in the assay with UO-31.
As to `C[C@]12OC(=O)[C@]3(O)CC[C@H]4[C@@H](C[C@@H](O)[C@@]5(Cl)CC=CC(=O)[C@]45C)[C@]45OCC6C(=O)O[C@@H]1C[C@@]6(C)[C@H](C4=O)[C@@]32O5` (stereo not given in full), the GI50 is 3.37 µM (inactive) with A549; 1.05 µM (active) with ACHN; 1.46 µM in the assay with HCT-15; 0.356 µM (active) with HL-60; 2.78 µM (inactive) in the assay on HOP-62; 0.615 µM (active) in the assay on MOLT-4. The GI50 with NCI-H226 is 1.91 µM (inactive); in the assay on NCI-H460, 1.89 µM (inactive); in the assay with NCI/ADR-RES, 2.6 µM (inactive); in the assay on OVCAR-3 it was 1.5 µM (inactive); with PC-3 it was 2.3 µM (inactive); with RXF 393, 0.283 µM (active). Also, the GI50 in the assay with SF-268 is 0.767 µM (active); in the assay with SF-539 it was 0.759 µM (active); in the assay on SK-MEL-28, 1.49 µM (inactive); with SN12C, 1.86 µM (inactive); with SNB-19, 5.73 µM (inactive); in the assay on SNB-75, 9.31 µM (inactive). The GI50 was 1.82 µM (inactive) in the assay on T47D and 1.23 µM (inactive) in the assay on UO-31.
`C=C(Cl)C(Cl)(CBr)CCC(Br)C(C)(C)Cl` (stereo not given): the GI50 was 4.36 µM (inactive) and 2.48 µM (inactive) and 3.09 µM (inactive) with A549; 1.7 µM (inactive) and 1.18 µM (inactive) and 1.32 µM (inactive) in the assay on ACHN; 2.07 µM and 13.3 µM and 3.18 µM in the assay on HCT-15; 635 nM (active) and 733 nM (active) and 2.42 µM (inactive) in the assay on HL-60; 703 nM (active) and 785 nM (active) and 1.43 µM (inactive) in the assay on HOP-62; 20.6 µM (inactive) and 10.1 µM (inactive) and 13.5 µM (inactive) in the assay on MOLT-4. Further, the GI50 was 18.2 µM (inactive) and 17.5 µM (inactive) and 16 µM (inactive) in the assay with NCI-H226; 2.34 µM (inactive) and 1.57 µM (inactive) and 1.45 µM (inactive) with NCI-H460; 12 µM (inactive) and 2.44 µM (inactive) and 1.83 µM (inactive) in the assay with NCI/ADR-RES; 798 nM (active) and 2.23 µM (inactive) and 1.51 µM (inactive) with OVCAR-3; 1.6 µM (inactive) and 904 nM (active) and 1 µM (active) with PC-3; 991 nM (active) and 190 nM (active) and 1.11 µM (active) in the assay on RXF 393. The GI50 was 3.03 µM (inactive) and 735 nM (active) and 1.35 µM (inactive) in the assay with SF-268; 1.95 µM (inactive) and 446 nM (active) and 1.27 µM (inactive) in the assay on SF-539; 1.73 µM (inactive) and 11.5 µM (inactive) and 2.28 µM (inactive) in the assay on SK-MEL-28; 14.7 µM (inactive) and 4.2 µM (inactive) and 6.62 µM (inactive) in the assay with SN12C; 2.41 µM (inactive) and 863 nM (active) and 3.49 µM (inactive) with SNB-19; 1.64 µM (inactive) and 834 nM (active) and 416 nM (active) with SNB-75. In addition, the GI50 in the assay on T47D is 3.37 µM (inactive) and 416 nM (active) and 973 nM (active); with UO-31, 1.85 µM (inactive) and 6.27 µM (inactive) and 1.99 µM (inactive).
Regarding `CCCCCC[C@H]([C@H](C)O)n1cnc2c(N)ncnc21`, the GI50 is > 100 µM (inactive) with A549; 61.5 µM (inactive) with ACHN; above 100 µM in the assay on HCT-15; 50.9 µM (inactive) in the assay on HL-60; > 100 µM (inactive) in the assay with HOP-62; > 100 µM (inactive) in the assay with MOLT-4. The GI50 in the assay with NCI-H226, in the assay with NCI-H460, in the assay on NCI/ADR-RES, with OVCAR-3, in the assay on PC-3 and in the assay with RXF 393 was > 100 µM (inactive) throughout. Further, the GI50 in the assay with SF-268 is > 100 µM (inactive); in the assay on SF-539, 57.4 µM (inactive); with SK-MEL-28, 49.3 µM (inactive); in the assay on SN12C it was > 100 µM (inactive); in the assay on SNB-19, > 100 µM (inactive); in the assay with SNB-75, 62.7 µM (inactive). Besides, the GI50 with T47D is > 100 µM (inactive); in the assay with UO-31 it was 91.8 µM (inactive).
In the case of `COC1C(N)C(OC2C(Oc3cccc4c(O)c5c(=O)oc6ccc(C)c7c(=O)oc(c34)c5c67)OC(C)C(O)C2(C)O)OC(C)C1O` (stereo not given), the GI50 was 0.0634 µM (active) in the assay on A549; 0.0399 µM (active) in the assay with ACHN; 0.0925 µM with HCT-15; 0.0416 µM (active) in the assay on HL-60; 0.0428 µM (active) in the assay with HOP-62; < 0.0243 µM (active) in the assay on MOLT-4. The GI50 is 0.0201 µM (active) in the assay on NCI-H226; < 0.0122 µM (active) with NCI-H460; 0.427 µM (active) with NCI/ADR-RES; 0.108 µM (active) with OVCAR-3; 0.0246 µM (active) in the assay with PC-3; < 0.0184 µM (active) in the assay with RXF 393. The GI50 with SF-268 is < 0.0119 µM (active); in the assay with SF-539, < 0.0154 µM (active); in the assay on SK-MEL-28, 0.029 µM (active); with SN12C it was 0.0178 µM (active); in the assay on SNB-19, 0.0186 µM (active); with SNB-75 it was 0.0313 µM (active). The GI50 with T47D is 0.0266 µM (active); in the assay on UO-31 it was 0.0746 µM (active).
